Assays:
Format in all cases: in vivo
[1] = system: Zea mays; assay: Post-emergence herbicidal activity (glasshouse); details: application post-emergence, 1000 g/Ha, evaluated after 13 days, scale 0-5
Description: (§1) Seeds of a variety of test species were sown in standard soil in pots. After 8 days cultivation (post-emergence) under controlled conditions in a glasshouse (at 24/16° C., day/night; 14 hours light; 65% humidity), the plants were sprayed with an aqueous spray solution derived from the formulation of the technical active ingredient in acetone/water (50:50) solution containing 0.5% Tween 20 (polyoxyethelyene sorbitan monolaurate, CAS RN 9005-64-5). The test plants were then grown in a glasshouse under controlled conditions (at 24/16° C., day/night; 14 hours light; 65% humidity) and watered twice daily. After 13 days, the test was evaluated (5=total damage to plant; 0=no damage to plant).

[2] = system: Echinochloa crus-galli; assay: Post-emergence herbicidal activity (glasshouse); details: application post-emergence, 1000 g/Ha, evaluated after 13 days, scale 0-5
Description: as §1

[3] = system: Setaria faberi; assay: Post-emergence herbicidal activity (glasshouse); details: application post-emergence, 1000 g/Ha, evaluated after 13 days, scale 0-5
Description: as §1

[4] = system: Abutilon theophrasti; assay: Post-emergence herbicidal activity (glasshouse); details: application post-emergence, 1000 g/Ha, evaluated after 13 days, scale 0-5
Description: as §1

[5] = system: Amaranthus retroflexus; assay: Post-emergence herbicidal activity (glasshouse); details: application post-emergence, 1000 g/Ha, evaluated after 13 days, scale 0-5
Description: as §1

[6] = system: Zea mays; assay: Pre-emergence herbicidal activity (glasshouse); details: application pre-emergence, 1000 g/Ha, evaluated after 13 days, scale 0-5
Description: as §1, with “After” for “After 8 days”, “for one day (pre-emergence)” for “(post-emergence)”

[7] = system: Echinochloa crus-galli; assay: Pre-emergence herbicidal activity (glasshouse); details: application pre-emergence, 1000 g/Ha, evaluated after 13 days, scale 0-5
Description: as §1, with “After” for “After 8 days”, “for one day (pre-emergence)” for “(post-emergence)”

[8] = system: Setaria faberi; assay: Pre-emergence herbicidal activity (glasshouse); details: application pre-emergence, 1000 g/Ha, evaluated after 13 days, scale 0-5
Description: as §1, with “After” for “After 8 days”, “for one day (pre-emergence)” for “(post-emergence)”

[9] = system: Abutilon theophrasti; assay: Pre-emergence herbicidal activity (glasshouse); details: application pre-emergence, 1000 g/Ha, evaluated after 13 days, scale 0-5
Description: as §1, with “After” for “After 8 days”, “for one day (pre-emergence)” for “(post-emergence)”

[10] = system: Amaranthus retroflexus; assay: Pre-emergence herbicidal activity (glasshouse); details: application pre-emergence, 1000 g/Ha, evaluated after 13 days, scale 0-5
Description: as §1, with “After” for “After 8 days”, “for one day (pre-emergence)” for “(post-emergence)”

[11] = system: Alopecurus myosuroides; assay: Post-emergence herbicidal activity (glasshouse); details: application post-emergence, 1000 g/Ha, evaluated after 13 days, scale 0-5
Description: as §1

[12] = system: Alopecurus myosuroides; assay: Pre-emergence herbicidal activity (glasshouse); details: application pre-emergence, 1000 g/Ha, evaluated after 13 days, scale 0-5
Description: as §1, with “After” for “After 8 days”, “for one day (pre-emergence)” for “(post-emergence)”

CCO[C@@H]1C(O)N(c2cc(C(C)(C)C)on2)C(=O)N1C (single isomer, unassigned) [Compound 1.6]
5: damage to plant score, ECHCG [2] | damage to plant score, SETFA [3] | damage to plant score, ABUTH [4] | damage to plant score, AMARE [5] | damage to plant score, ABUTH [9] | damage to plant score, AMARE [10]
1: damage to plant score, SETFA [8]
2: damage to plant score, ZEAMX [6]
4: damage to plant score, ZEAMX [1] | damage to plant score, ECHCG [7]

CON1C(=O)N(c2cc(C(F)(F)F)ccn2)C(O)C1C (stereo not shown) [Compound 1.1, 4-hydroxy-1-methoxy-5-methyl-3-[4-(trifluoromethyl)-2-pyridyl]imidazolidin-2-one]
5: damage to plant score, ALOMY [11] | damage to plant score, ECHCG [2] | damage to plant score, SETFA [3] | damage to plant score, ABUTH [4] | damage to plant score, AMARE [5] | damage to plant score, SETFA [8] | damage to plant score, ABUTH [9] | damage to plant score, AMARE [10]
2: damage to plant score, ZEAMX [1] | damage to plant score, ZEAMX [6]
4: damage to plant score, ALOMY [12] | damage to plant score, ECHCG [7]

CC1C(O)N(c2cc(C(F)(F)F)ccn2)C(=O)N1C (stereo not shown) [Compound 1.2, 4-hydroxy-1,5-dimethyl-3-[4-(trifluoromethyl)-2-pyridyl]imidazolidin-2-one]
4: damage to plant score, ZEAMX [1] | damage to plant score, ALOMY [12] | damage to plant score, ECHCG [7]
5: damage to plant score, ALOMY [11] | damage to plant score, ECHCG [2] | damage to plant score, SETFA [3] | damage to plant score, ABUTH [4] | damage to plant score, AMARE [5] | damage to plant score, SETFA [8] | damage to plant score, ABUTH [9] | damage to plant score, AMARE [10]
3: damage to plant score, ZEAMX [6]

CCOC1C(O)N(c2cc(C(F)(F)F)ccn2)C(=O)N1C (stereo not shown) [Compound 1.3, 5-ethoxy-4-hydroxy-1-methyl-3-[4-(trifluoromethyl)-2-pyridyl]imidazolidin-2-one]
4: damage to plant score, ZEAMX [1] | damage to plant score, ALOMY [12]
5: damage to plant score, ALOMY [11] | damage to plant score, ECHCG [2] | damage to plant score, SETFA [3] | damage to plant score, ABUTH [4] | damage to plant score, AMARE [5] | damage to plant score, ECHCG [7] | damage to plant score, SETFA [8] | damage to plant score, ABUTH [9] | damage to plant score, AMARE [10]
3: damage to plant score, ZEAMX [6]

CN1CC(O)N(c2cc(C(F)(F)F)ccn2)C1=O (stereo not shown) [Compound 1.4, 4-hydroxy-1-methyl-3-[4-(trifluoromethyl)-2-pyridyl]imidazolidin-2-one]
3: damage to plant score, ZEAMX [6]
5: damage to plant score, ZEAMX [1] | damage to plant score, ALOMY [11] | damage to plant score, ECHCG [2] | damage to plant score, SETFA [3] | damage to plant score, ABUTH [4] | damage to plant score, AMARE [5] | damage to plant score, ECHCG [7] | damage to plant score, ABUTH [9] | damage to plant score, AMARE [10]
4: damage to plant score, ALOMY [12] | damage to plant score, SETFA [8]

CC1C(O)N(c2cc(C(F)(F)F)n(C)n2)C(=O)N1C (stereo not shown) [Compound 1.5, 4-hydroxy-1,5-dimethyl-3-[1-methyl-5-(trifluoromethyl)pyrazol-3-yl]imidazolidin-2-one]
4: damage to plant score, ZEAMX [1] | damage to plant score, ZEAMX [6] | damage to plant score, ALOMY [12] | damage to plant score, ECHCG [7] | damage to plant score, SETFA [8]
5: damage to plant score, ALOMY [11] | damage to plant score, ECHCG [2] | damage to plant score, SETFA [3] | damage to plant score, ABUTH [4] | damage to plant score, AMARE [5] | damage to plant score, ABUTH [9] | damage to plant score, AMARE [10]
